# Where “and” joins values, the source holds several entries; their conditions need not be identical. Equal values may be shown once. Where a name gives a salt, the structure may show the parent alone.
# Columns and labels:
# [1] = molecular target: T1, cloned human kappa receptor (Homo sapiens, UniProt P41145); experiment: [3H]U69593 (agonist) binding to the cloned human kappa receptor
# [2] = molecular target: T1, cloned human kappa receptor; experiment: biochemical; type: binding; conditions: for inhibition at 1 µM: read-out: 3H-Diprenorphin, % @ 1 uM
# [3] = tested on: formalin-induced flinching; experiment: animal or person; type: in vivo, male Sprague-Dawley rats; conditions: for inhibition in vivo at 0.3 µM: Rattus norvegicus, read-out: Formalin (% A @ 300 nM) i. paw
# [4] = read-out: Ki(nM) [3H]-Diprenorphin κ
# T1 sequence (P41145 whole entry): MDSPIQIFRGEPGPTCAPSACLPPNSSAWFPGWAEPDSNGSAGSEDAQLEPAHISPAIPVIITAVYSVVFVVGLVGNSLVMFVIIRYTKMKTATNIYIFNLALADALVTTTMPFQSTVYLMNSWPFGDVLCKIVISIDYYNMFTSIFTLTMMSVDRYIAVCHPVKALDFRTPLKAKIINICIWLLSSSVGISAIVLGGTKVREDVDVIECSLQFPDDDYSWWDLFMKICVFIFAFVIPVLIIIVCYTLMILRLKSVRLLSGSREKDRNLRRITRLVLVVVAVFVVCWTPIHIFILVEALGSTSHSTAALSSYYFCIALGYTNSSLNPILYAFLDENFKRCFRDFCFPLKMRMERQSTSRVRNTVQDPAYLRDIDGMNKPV
compound,measurement,setting,value
COc1cc2c(cc1S(=O)(=O)N(C)Cc1ccccc1)[C@H](N(C)C(=O)Cc1ccc(Cl)c(Cl)c1)[C@@H](N1CCCC1)CC2 (racemic) [II-15],Ki,"[1]; Ki (nM) k (mg) [3H]U69,593",8 nM
same,Ki,[2]; Ki (nM) k [3H] Diprenorphin,48 nM
"CN(C(=O)Cc1ccccc1C(=O)O)[C@H](CN1CCCC1)c1ccccc1.Cl [Example 3kk, 2-(2-Carboxyphenyl)-N-methyl-N-{[1S]-1-phenyl-2-(1-pyrrolidinyl)ethyl}acetamide hydrochloride]",melting point,,230 to 232 °C (dec.)
same,"[3H]-Diprenorphin κ, % @ 1 μM",[2],53% @ 1 μM
same,"Late Phase Formalin, % @ 300","[3]; rat, in vivo",23% @ 300
CN(C(=O)Cc1ccc(Cl)c(Cl)c1)[C@H]1c2cc(N(CC(=O)O)CC(=O)O)ccc2CC[C@@H]1N1CCCC1 (racemic) [II-12],Ki,"[1]; Ki (nM) k (mg) [3H]U69,593",0.68 nM
same,Ki,[2]; Ki (nM) k [3H] Diprenorphin,3.8 nM
"CN(C(=O)Cc1ccc(Cl)c(S(N)(=O)=O)c1)[C@H](CN1CCCC1)c1ccccc1.CS(=O)(=O)O [Example 3m, 2-(3-Sulfamoyl-4-chlorophenyl)-N-methyl-N-{[1S]-1-phenyl-2-[1-pyrrolidinyl]ethyl}acetamide methanesulfonate]",melting point,,220 to 222 °C
same,Ki,[2]; Ki (nM) [3H]-Diprenorphin κ,5.1 nM
same,"Late Phase Formalin, % @ 300","[3]; rat, in vivo",65% @ 300
"CS(=O)(=O)N1CCN(C(=O)Cc2ccccc2[N+](=O)[O-])[C@H](CN2CCCC2)C1.Cl (racemic) [(R,S-8c), (R,S)-4-Methanesulfonyl-1-[(2-nitrophenyl)acetyl]-2-[(1-pyrrolidinyl)-methyl]piperazine hydrochloride]","3H-U-69,593, % @ 1 uM",[1],51% @ 1 uM
same,"3H-Diprenorphin, % @ 1 uM",[2],15% @ 1 uM
"CN(C(=O)Cc1ccc(S(C)(=O)=O)cc1)[C@H](CN1CCCC1)c1cccc(NS(C)(=O)=O)c1.CS(=O)(=O)O [Example 3e, 2-(4-Methanesulfonylphenyl)-N-methyl-N-{[1S]-1-[3-[(methylsulfonyl)amino]phenyl]-2-[1-pyrrolidinyl]ethyl}acetamide methanesulfonate]",melting point,,140 to 142 °C
same,Ki,[2]; Ki (nM) [3H]-Diprenorphin κ,3.2 nM
same,"Late Phase Formalin, % @ 300","[3]; rat, in vivo",71% @ 300
"CN(C(=O)Cc1ccc(Cl)c(Cl)c1)[C@H](CN1CCCC1)c1cccc(NS(C)(=O)=O)c1.Cl [Example 3f, 2-(3,4-Dichlorophenyl)-N-methyl-N-{[1S]-1-[3-[(methylsulfonyl)amino]phenyl]-2-[1-pyrrolidinyl]ethyl}acetamide hydrochloride]",melting point,,240 to 242 °C
same,Ki,[2]; Ki (nM) [3H]-Diprenorphin κ,0.18 nM
same,Late Phase Formalin A50,"[3]; rat, in vivo",8.9 mg/kg
"CS(=O)(=O)c1ccc(CC(=O)N2CCN(S(C)(=O)=O)CC2CN2CCCC2)cc1 (racemic) [(R,S-8b), (R,S)-4-Methanesulfonyl-1-[(4-methylsulfonylphenyl)acetyl]-2-[(1-pyrrolidinyl)-methyl]piperazine hydrochloride]",Ki,"[1]; Ki, nM 3H-U-69,593",20 nM and 31 nM
same,inhibition at 1 µM,[2],41%
CN(C(=O)Cc1ccc(C(F)(F)F)cc1NC(=O)/C=C\C(=O)O)[C@H](CN1CCCC1)c1ccccc1 [Example 3z],melting point,,153 to 155 °C (dec.)
same,Ki,[2]; Ki (nM) [3H]-Diprenorphin κ,1.7 nM
same,"Late Phase Formalin, % @ 300","[3]; rat, in vivo",98% @ 300
"CC(=O)N1CCN(C(=O)Cc2ccccc2[N+](=O)[O-])C(CN2CCCC2)C1 (racemic) [(R,S-10e), (R,S)-4-Acetyl-1-[(2-nitrophenyl)acetyl]-3-[(1-pyrrolidinyl)-methyl]piperazine-carboxylate hydrochloride]",Ki,"[1]; Ki, nM 3H-U-69,593",24 nM
same,Ki,"[2]; Table I, read-out: Ki, nM 3H-Diprenorphin",541 nM
"CC(=O)N1CCN(C(=O)Cc2ccc([N+](=O)[O-])cc2)C(CN2CCCC2)C1 (racemic) [(R,S-10f), hydrochloride]",Ki,"[1]; Ki, nM 3H-U-69,593",2.4 nM
same,inhibition at 1 µM,[2],59%
CN(C(=O)Cc1ccc(Cl)c(Cl)c1)[C@H](CN1CCCC1)c1cccc(NC(=O)/C=C\C(=O)O)c1 [Example 3h],melting point,,174 to 176 °C
same,Ki,[2]; Ki (nM) [3H]-Diprenorphin κ,1.8 nM
same,"Late Phase Formalin, % @ 10","[3]; rat, in vivo",59% @ 10
CCOP(=O)(Nc1ccc2c(c1)[C@H](N(C)C(=O)Cc1ccc(Cl)c(Cl)c1)[C@@H](N1CCCC1)CC2)OCC (racemic) [II-14],Ki,"[1]; Ki (nM) k (mg) [3H]U69,593",0.6 nM
same,Ki,[2]; Ki (nM) k [3H] Diprenorphin,2.4 nM
"CN(C(=O)Cc1ccc(C(F)(F)F)cc1N(S(C)(=O)=O)S(C)(=O)=O)C1CCCCC1N1CCCC1.Cl (racemic) [Example 5j, (±)-trans-2-Bismethanesulfonamido-4-trifluoromethyl-N-methyl-N-[2-(1-pyrrolidinyl)cyclohexyl]-phenylacetamide Hydrochloride]","% @ 1 μM, U-69593",[1],48% @1 μM
same,"% @ 1 μM, diprenorphine",[2],13% @ 1 μM
CN(C(=O)Cc1ccc(Cl)c(Cl)c1)[C@H]1c2cc(N(CC(=O)OC(C)(C)C)CC(=O)OC(C)(C)C)ccc2CC[C@@H]1N1CCCC1 (racemic) [II-11],Ki,"[1]; Ki (nM) k (mg) [3H]U69,593",2.8 nM
same,Ki,[2]; Ki (nM) k [3H] Diprenorphin,7.4 nM
"CNS(=O)(=O)c1cc(CC(=O)N(C)[C@H](CN2CCCC2)c2ccccc2)ccc1F.Cl [Example 3o, 2-[3-(N-Methylsulfamoyl)-4-fluorophenyl]-N-methyl-N-{[1S]-1-phenyl-2-[1-pyrrolidinyl]ethyl}acetamide hydrochloride]",melting point,,278 to 280 °C
same,Ki,[2]; Ki (nM) [3H]-Diprenorphin κ,30.5 nM
same,"Late Phase Formalin, % @ 300","[3]; rat, in vivo",59% @ 300
"CC(C)(C)OC(=O)N[C@H](CC(=O)OCc1ccccc1)C(=O)N1CCN(C(=O)Cc2ccc(Cl)c(Cl)c2)[C@H](CN2CCCC2)C1 [(R-3d), (R)-4-N-t-Boc-D-aspartic acid-β-benzyl ester-1-[(3,4-dichlorophenyl)acetyl]-2-[(1-pyrrolidinyl)methyl]-piperazine]",Ki,"[1]; read-out: Ki, nM 3H-U-69,593",379 nM and 249 nM
same,"3H-Diprenorphin, % @ 1 uM",[2],36% @ 1 uM
COc1ccc2c(c1)[C@H](N(C)C(=O)C(c1ccccc1)c1ccccc1)[C@@H](N1CCCC1)CC2 (racemic) [II-2],Ki,"[1]; Ki (nM) k (mg) [3H]U69,593",20 nM
same,Ki,[2]; Ki (nM) k [3H] Diprenorphin,142 nM
"CN(C(=O)Cc1ccccc1NS(C)(=O)=O)C(CN1CCCC1)c1ccc(O)cc1 (racemic) [Example 129A, (R,S)-2-(2-N-Methylsulfonamido-2-aminophenyl)-N-methyl-N-1-(4-hydroxyphenyl)-2-(1-pyrrolidinyl)ethyl]acetamide]",Ki,[2]; Ki (nM) [3H]-Diprenorphin κ,59 nM
same,"Late Phase Formalin (i. paw), % @ 300","[3]; rat, in vivo",46% @ 300
"CS(=O)(=O)N1CCN(C(=O)Cc2ccc(Cl)c(Cl)c2)C(CN2CC[C@H](O)C2)C1 (mixture of isomers) [Example 1ll, 4-Methylsulphonyl-1-[(3,4-dichlorophenyl)acetyl]-2-(R,S)-[(3-(S)-hydroxy-1-pyrrolidinyl)methyl]piperazine hydrochloride]",Ki,"[2]; Ki, nM 3H-Diprenorphin",2.86 nM
same,inhibition in vivo at 0.3 µM,[3],52%
"CN(C(=O)Cc1ccc(C(F)(F)F)cc1)[C@H](CN1CCCC1)c1cccc(NS(C)(=O)=O)c1.Cl [Example 3d, 2-(4-Trifluoromethylphenyl)-N-methyl-N-{[1S]-1-[3-[(methylsulfonyl)amino]phenyl]-2-[1-pyrrolidinyl]ethyl}acetamide hydrochloride]",melting point,,173 to 175 °C
same,Ki,[2]; Ki (nM) [3H]-Diprenorphin κ,0.28 nM
same,Late Phase Formalin A50,"[3]; rat, in vivo",16.0 mg/kg
"N-[1R,2R-trans-4-Trifluoromethyl-N-methyl-N-[2-(1-pyrrolidinyl)cyclohexyl]-phenylacetamido]glycine Hydrochloride [Example 4k]","[3H]-Diprenorphin, % @ 1 μM",[2],28% @ 1 μM
same,Formalin (% A @ 300 μg i-paw),"[3]; rat, in vivo",80% @ 300
"COC(=O)N1CCN(C(=O)Cc2ccc(Cl)c(Cl)c2)C(CN2CCCC2CO)C1 [Example 1l, Methyl-4-[(3,4-dichlorophenyl)acetyl]-3-(R)-[(2-(S)-pyrrolidinemethanol)methyl]-1-piperazinecarboxylate hydrochloride]",Ki,"[2]; Ki, nM 3H-Diprenorphin",3.5 nM
same,Formalin A50 mg/kg s.c.,"[3]; rat, in vivo, sc",1.7 mg/kg
"CN(C(=O)Cc1cc2c(cc1S(=O)(=O)N(C)C)OCO2)[C@H](CN1CC[C@H](O)C1)c1ccccc1 [Example 133, 2-[2-(N-Dimethylsulfamoyl)-4,5-methylenedioxyphenyl]-N-methyl-N-[(1S)-1-phenyl-2-[1-(3S)-(3-hydroxypyrrolidinyl)ethyl]]acetamide]",Ki,[2]; [4],0.64 nM
same,"Late Phase Formalin (i. paw), % @ 300","[3]; rat, in vivo",98% @ 300
"COC(=O)N1CCN(C(=O)Cc2ccc(Cl)c(Cl)c2)C(CN2CCC[C@H]2COC(=O)Cc2ccc(Cl)c(Cl)c2)C1 (mixture of isomers) [Example 1k, Methyl-4-[(3,4-dichlorophenyl)acetyl]-3-(R,S)-[(2-(S)-pyrrolidinemethyl-3′,4′-dichlorophenyl acetate)methyl]-1-piperazinecarboxylate hydrochloride]",Ki,"[2]; Ki, nM 3H-Diprenorphin",51.5 nM
same,inhibition in vivo at 0.3 µM,[3],95%
"CC(=O)N1CCN(C(=O)Cc2ccc(Cl)c(Cl)c2)C(CN2CCC[C@H]2CO)C1 (mixture of isomers) [Example 1z, 4-Acetyl-1-[(3,4-dichlorophenyl)acetyl]-2-(R,S)-[(2-(S)-pyrrolidinemethanol)methyl]piperazine hydrochloride]",Ki,"[2]; Table IA, read-out: Ki(nM) (3H)-Diprenorphin",102 nM
same,inhibition in vivo at 0.3 µM,[3],71%
"COc1ccc(CC(=O)N(C)[C@H](CN2CC[C@H](O)C2)c2ccccc2)cc1NS(C)(=O)=O [Example 127, 2-(3-N-Methylsulfonamido-3-amino-4-methoxyphenyl)-N-methyl-N-[(1S)-1-phenyl-2-[1-(3S)-(3-hydroxypyrrolidinyl)ethyl]]acetamide]",Ki,[2]; Ki (nM) [3H]-Diprenorphin κ,0.82 nM
same,"Late Phase Formalin (i. paw), % @ 300","[3]; rat, in vivo",94% @ 300
"CS(=O)(=O)N1CCN(C(=O)Cc2ccc(Cl)c(Cl)c2)C(CN2CC[C@H](OC(=O)Cc3ccc(Cl)c(Cl)c3)C2)C1 (stereo partly drawn) [Example 1kk, 4-Methylsulphonyl-1-[(3,4-dichlorophenyl)acetyl]-2-(R,S)-[3-(S)-(3′,4′dichlorophenyl acetate)-1-(pyrrolidinyl)methyl]piperazine hydrochloride]",Ki,"[2]; Ki, nM 3H-Diprenorphin",5.1 nM
same,inhibition in vivo at 0.3 µM,[3],52%
(S)-2-(2-N-Methylsulfonamido-2-aminophenyl)-N-methyl-N-1-(4-hydroxyphenyl)-2-(1-pyrrolidinyl)ethyl]acetamide [Example 129B],Ki,[2]; [4],75 nM
same,"Late Phase Formalin (i. paw), % @ 300","[3]; rat, in vivo",>46% @ 300

# — patent publication US20050020576A1, “Kappa agonist compounds and pharmaceutical formulations thereof” (priority 1996, published 2005)
